# In patent publication US20170333391A1, “METHOD FOR DELAYING THE ONSET OF PULMONARY FIBROSIS OR TREATING PULMONARY FIBROSIS” (EVERFRONT BIOTECH INC., priority 2016, published 2017):
# What was measured:
# Type in all cases: cell-based, human
# BMP-7 protein = BMP-7 protein expression in NHLF, western blotting (3-1)
# Method: Normal Human lung fibroblasts (NHLF) were seeded into 6 cm culture dishes at a density of 2×10^5 cells/dish, comprising a control group and six experimental groups (7 dishes in total). The cells were cultured until the next day, and then the mediums were removed. Each group was respectively treated under the following conditions to conduct follow-up experiments: • (1) Control group: cells were cultured in a FGM-2 medium containing 10% serum for 36 hours; • (2) Group i: cells were cultured in a FGM-2 medium containing 1% serum for 36 hours; • (3) Group ii: cells were firstly cultured in a FGM-2 medium containing 1% serum for 12 hours, and then compound (1) was added into the medium to provide a final concentration of 15 μg/ml; thereafter, the cells were cultured for another 24 hours; • (4) Group iii: cells were firstly cultured in a FGM-2 medium containing 1% serum for 12 hours, and then compound (1) was added into the medium to provide a final concentration of 25 μg/ml; thereafter, the cells were cultured for another 24 hours; • (5) Group iv: cells were cultured in a FGM-2 medium containing 1% serum and TGF-β1 (5 ng/ml) for 36 hours; • (6) Group v: cells were firstly cultured in a FGM-2 medium containing 1% serum and TGF-β1 (5 ng/ml) for 12 hours, and then compound (1) was added into the medium to provide a final concentration of 15 μg/ml; thereafter, the cells were cultured for another 24 hours; and • (7) Group vi: cells were firstly cultured in a FGM-2 medium containing 1% serum and TGF-β1 (5 ng/ml) for 12 hours, and then compound (1) was added into the medium to provide a final concentration of 25 μg/ml; thereafter, the cells were cultured for another 24 hours.
# (§1) Thereafter, the proteins in the cells of each group were extracted, and the expressions of BMP-7 protein, TGF-β protein and α-SMA protein in the NHLF cells of each group were measured with western blotting, wherein the β-actin served as the internal control. The results of the control group served as the basis for calculating the relative expression levels of the other groups.
# α-SMA = α-SMA mRNA expression in NHLF, Q-PCR (3-2); conditions: 24 hours
# Method: (§2) Normal Human lung fibroblasts (NHLF) were seeded into 6-well plate at a density of 10^5 cells/well, comprising a control group and five experimental groups (6 wells in total). The cells were cultured until the next day, and then the mediums were removed. Each group was respectively treated under the following conditions to conduct follow-up experiments: • (1) Control group: cells were cultured in a FGM-2 medium containing 1% serum for 24 hours; • (2) Group α: cells were cultured in a FGM-2 medium containing 1% serum and compound (1) (5 μg/ml) for 24 hours; • (3) Group β: cells were cultured in a FGM-2 medium containing 1% serum and compound (1) (10 μg/ml) for 24 hours; • (4) Group γ: cells were cultured in a F-12K medium containing 1% serum and H2O2 (0.1 mM) for 24 hours; • (5) Group δ: cells were cultured in a F-12K medium containing 1% serum, H2O2 (0.1 mM) and compound (1) (5 μg/ml) for 24 hours; and • (6) Group ε: cells were cultured in a F-12K medium containing 1% serum, H2O2 (0.1 mM) and compound (1) (10 μg/ml) for 24 hours.
# (§3) Thereafter, the total RNA of cells taken from each group were extracted, and then reverse transcription was conducted on the total RNA by using a QuantiTect Reverse Transcription Kit to obtain cDNA therefrom. A Q-PCR was then conducted on the cDNA to analyze the mRNA expression levels of genes such as α-SMA and TGF-β, wherein GAPDH gene served as an internal control. The results of the control group served as the basis for calculating the relative expression levels of the other groups.
# TGF-β = TGF-β mRNA expression in NHLF, Q-PCR (3-2); conditions: 24 hours
# Method: as §2, §3
# TGF-β protein = TGF-β protein expression in TGF-β1-induced NHLF, western blotting (Example 4); conditions: uninduced control = 1, TGF-β1-only group A = 1.75
# Method: (§4) Normal Human lung fibroblasts (NHLF) were seeded into 6 cm culture dishes at a density of 2×10^5 cells/dish, comprising a control group and five experimental groups (6 dishes in total). The cells were cultured until the next day, and then the mediums were removed. Each group was respectively treated under the following conditions to conduct follow-up experiments: • (1) Control group: cells were cultured in a FGM-2 medium containing 1% serum for 36 hours; • (2) Group A: cells were cultured in a FGM-2 medium containing 1% serum and TGF-β1 (5 ng/ml) for 36 hours; • (3) Group B: cells were firstly cultured in a FGM-2 medium containing 1% serum and TGF-β1 (5 ng/ml) for 12 hours, and then compound (1) was added into the medium to provide a final concentration of 15 μg/ml; thereafter, the cells were cultured for another 24 hours; • (4) Group C: cells were firstly cultured in a FGM-2 medium containing 1% serum and TGF-β1 (5 ng/ml) for 12 hours, and then compound (1) was added into the medium to provide a final concentration of 30 μg/ml; thereafter, the cells were cultured for another 24 hours; • (5) Group D: cells were firstly cultured in a FGM-2 medium containing 1% serum and TGF-β1 (5 ng/ml) for 12 hours, and then compound (2) was added into the medium to provide a final concentration of 100 μg/ml; thereafter, the cells were cultured for another 24 hours; and • (6) Group E: cells were firstly cultured in a FGM-2 medium containing 1% serum and TGF-β1 (5 ng/ml) for 12 hours, and then compound (2) was added into the medium to provide a final concentration of 200 μg/ml; thereafter, the cells were cultured for another 24 hours.
# as §1, with “p-smad2/3” for “α-SMA”, “blotting.” for “blotting, wherein the β-actin served as the internal control.”
# p-smad2/3 protein = p-smad2/3 protein expression in TGF-β1-induced NHLF, western blotting (Example 4); conditions: uninduced control = 1, TGF-β1-only group A = 1.42
# Method: as §4
# as §1, with “p-smad2/3” for “α-SMA”, “blotting.” for “blotting, wherein the β-actin served as the internal control.”
# [1] = Group α: mRNA, FGM-2 medium 1% serum + compound (1) 5 μg/ml, control group = 1
# [2] = Group β: mRNA, FGM-2 medium 1% serum + compound (1) 10 μg/ml, control group = 1
# [3] = Group B: TGF-β1 5 ng/ml 12 h, then compound (1) 15 μg/ml 24 h
# [4] = Group C: TGF-β1 5 ng/ml 12 h, then compound (1) 30 μg/ml 24 h
compound,measurement,setting,value
CCCC=C1OC(=O)c2ccccc21 [compound (1)],Relative expression level (fold) BMP-7 protein,"BMP-7 protein; Group ii: 1% serum 12 h, then compound (1) 15 μg/ml 24 h, no TGF-β1, 10% serum control = 1, 1% serum group i = 1",0.91 fold
same,Relative expression level (fold) BMP-7 protein,"BMP-7 protein; Group iii: 1% serum 12 h, then compound (1) 25 μg/ml 24 h, no TGF-β1, 10% serum control = 1, 1% serum group i = 1",0.81 fold
same,Relative expression level (fold) BMP-7 protein,"BMP-7 protein; Group v: 1% serum + TGF-β1 5 ng/ml 12 h, then compound (1) 15 μg/ml 24 h, 10% serum control = 1, TGF-β1-only group iv = 0.82",0.76 fold
same,Relative expression level (fold) BMP-7 protein,"BMP-7 protein; Group vi: 1% serum + TGF-β1 5 ng/ml 12 h, then compound (1) 25 μg/ml 24 h, 10% serum control = 1, TGF-β1-only group iv = 0.82",1.07 fold
same,Relative expression level (fold) α-SMA,α-SMA; [1],0.46 fold
same,Relative expression level (fold) α-SMA,α-SMA; [2],0.64 fold
same,Relative expression level (fold) α-SMA,"α-SMA; Group δ: mRNA, F-12K medium 1% serum + H2O2 0.1 mM + compound (1) 5 μg/ml, control group = 1, H2O2-only group γ = 0.92",0.56 fold
same,Relative expression level (fold) α-SMA,"α-SMA; Group ε: mRNA, F-12K medium 1% serum + H2O2 0.1 mM + compound (1) 10 μg/ml, control group = 1, H2O2-only group γ = 0.92",0.37 fold
same,Relative expression level (fold) TGF-β,TGF-β; [1],0.61 fold
same,Relative expression level (fold) TGF-β,TGF-β; [2],0.12 fold
same,Relative expression level (fold) TGF-β,"TGF-β; Group δ: mRNA, F-12K medium 1% serum + H2O2 0.1 mM + compound (1) 5 μg/ml, control group = 1, H2O2-only group γ = 0.34",0.42 fold
same,Relative expression level (fold) TGF-β,"TGF-β; Group ε: mRNA, F-12K medium 1% serum + H2O2 0.1 mM + compound (1) 10 μg/ml, control group = 1, H2O2-only group γ = 0.34",0.04 fold
same,Relative expression level (fold) TGF-β protein,TGF-β protein; [3],1.27 fold
same,Relative expression level (fold) TGF-β protein,TGF-β protein; [4],1.34 fold
same,Relative expression level (fold) p-smad2/3 protein,p-smad2/3 protein; [3],0.82 fold
same,Relative expression level (fold) p-smad2/3 protein,p-smad2/3 protein; [4],1.08 fold
